# Paper PMC9072010, “Synthesis and bioevaluation of thienopyrimidines bearing a pyrazoline unit as selective PI3Kα inhibitors” (RSC Advances, 2019)
# Legend:
# PI3Kα = PI3Kα (Homo sapiens, UniProt P42336); assay: Kinase-Glo Luminescent Kinase Assay, PI3Kα; assay type: biochemical; conditions: average of two separate determinations
# Method: The experiment was conducted according to the method reported by our research group.[17]
# A549 cancer cell lines [1] = assay: MTT antiproliferative assay, A549; assay type: cell-based, human
# mTOR = mTOR (Homo sapiens, UniProt P42345); assay: Kinase-Glo Luminescent Kinase Assay, mTOR; assay type: biochemical; conditions: average of two separate determinations
# HepG2 cancer cell lines = assay: MTT antiproliferative assay, HepG2; assay type: cell-based, human
# MCF-7 cancer cell lines = assay: MTT antiproliferative assay, MCF-7; assay type: cell-based, human
# A549 cells = assay: Annexin V-FITC/PI double staining by flow cytometry; assay type: cell-based, human
# A549 cancer cell lines [2] = assay: Acridine orange (AO) single staining; assay type: cell-based, human; conditions: A549, fluorescence microscopy, Fig. 4
# Method: In order to investigate whether the target compound 13f could induce the apoptosis of A549 cancer cell lines, acridine orange (AO) staining assay was carried out. […] But in the test group (Fig. 4b), the cell shape was abnormal with cell shrinkage, chromatin condensation after compound 13f acted on the A549 cells.
# The cancer cell apoptotic of target compound 13f were evaluated with A549 cancer cell lines by acridine orange single staining. The experiment was conducted according to the method reported by our research group.[18]
# [3] = Homo sapiens, A549, Table 2, average of two separate determinations
# [4] = Homo sapiens, HepG2, Table 2, average of two separate determinations
# [5] = Homo sapiens, A549, Table 1, average of two separate determinations
# [6] = Homo sapiens, MCF7, Table 1, average of two separate determinations
# [7] = Homo sapiens, HepG2, Table 1, average of two separate determinations
# [8] = Homo sapiens, MCF7, Table 2, average of two separate determinations
# [9] = Table 2, average of two separate determinations
# Sequence of PI3Kα (P42336 whole entry): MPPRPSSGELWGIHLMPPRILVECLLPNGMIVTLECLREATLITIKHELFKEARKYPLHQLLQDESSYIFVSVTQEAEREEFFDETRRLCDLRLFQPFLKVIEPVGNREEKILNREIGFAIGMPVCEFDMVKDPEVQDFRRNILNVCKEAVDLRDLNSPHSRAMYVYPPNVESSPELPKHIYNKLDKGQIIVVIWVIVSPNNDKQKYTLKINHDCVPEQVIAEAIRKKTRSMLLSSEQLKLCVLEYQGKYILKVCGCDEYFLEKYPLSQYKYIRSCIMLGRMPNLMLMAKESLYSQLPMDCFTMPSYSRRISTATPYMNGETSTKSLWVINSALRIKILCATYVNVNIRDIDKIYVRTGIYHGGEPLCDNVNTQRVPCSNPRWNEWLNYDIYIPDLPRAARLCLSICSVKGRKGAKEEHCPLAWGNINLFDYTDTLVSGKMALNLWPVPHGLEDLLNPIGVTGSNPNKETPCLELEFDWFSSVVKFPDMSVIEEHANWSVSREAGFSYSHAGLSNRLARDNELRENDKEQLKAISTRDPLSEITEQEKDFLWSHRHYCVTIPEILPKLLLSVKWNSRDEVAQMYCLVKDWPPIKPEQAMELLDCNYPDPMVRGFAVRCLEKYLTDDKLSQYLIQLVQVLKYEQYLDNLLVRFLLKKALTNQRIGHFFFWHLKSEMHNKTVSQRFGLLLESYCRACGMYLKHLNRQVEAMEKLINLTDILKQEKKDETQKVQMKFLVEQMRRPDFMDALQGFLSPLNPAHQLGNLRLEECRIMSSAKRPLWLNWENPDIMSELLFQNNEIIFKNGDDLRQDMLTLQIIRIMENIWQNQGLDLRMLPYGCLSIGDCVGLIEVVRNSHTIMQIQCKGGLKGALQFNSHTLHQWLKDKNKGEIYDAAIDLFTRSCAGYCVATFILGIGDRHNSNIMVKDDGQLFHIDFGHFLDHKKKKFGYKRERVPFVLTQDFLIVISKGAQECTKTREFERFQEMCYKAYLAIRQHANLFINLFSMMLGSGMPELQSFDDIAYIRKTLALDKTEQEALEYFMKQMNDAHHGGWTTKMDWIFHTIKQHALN
# Sequence of PI3Kα (P27986 whole entry partner): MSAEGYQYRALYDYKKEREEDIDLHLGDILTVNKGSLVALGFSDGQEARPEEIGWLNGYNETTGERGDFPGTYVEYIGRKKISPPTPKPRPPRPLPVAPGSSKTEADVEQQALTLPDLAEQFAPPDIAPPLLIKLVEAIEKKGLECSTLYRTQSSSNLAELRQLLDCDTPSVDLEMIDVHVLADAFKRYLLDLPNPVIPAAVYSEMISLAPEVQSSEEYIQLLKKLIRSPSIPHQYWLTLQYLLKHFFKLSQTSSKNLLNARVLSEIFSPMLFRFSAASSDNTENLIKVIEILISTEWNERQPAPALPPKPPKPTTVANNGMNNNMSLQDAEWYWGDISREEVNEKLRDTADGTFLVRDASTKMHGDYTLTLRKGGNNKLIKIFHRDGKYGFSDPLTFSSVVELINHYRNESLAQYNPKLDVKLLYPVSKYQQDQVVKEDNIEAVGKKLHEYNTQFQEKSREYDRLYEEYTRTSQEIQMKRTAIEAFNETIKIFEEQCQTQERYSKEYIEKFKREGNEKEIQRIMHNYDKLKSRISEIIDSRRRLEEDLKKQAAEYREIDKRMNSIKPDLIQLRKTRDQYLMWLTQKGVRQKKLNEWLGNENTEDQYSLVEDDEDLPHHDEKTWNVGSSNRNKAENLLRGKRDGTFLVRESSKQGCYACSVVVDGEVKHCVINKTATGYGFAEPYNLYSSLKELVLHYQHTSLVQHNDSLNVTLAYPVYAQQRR
Compound,IC50 (A549 cancer cell lines [1]; [3]),IC50 (HepG2 cancer cell lines; [4]),melting point,IC50 (A549 cancer cell lines [1]; [5]),IC50 (MCF-7 cancer cell lines; [6]),IC50 (HepG2 cancer cell lines; [7]),IC50 (MCF-7 cancer cell lines; [8]),also measured
"Cc1ccc(C2CC(c3ccc(Br)cc3)=NN2c2nc(N(C)CCN(C)C)c3ccsc3n2)cc1 (stereo not drawn) [Compound 13h, N ^1-(2-(3-(4-Bromophenyl)-5-(p-tolyl)-4,5-dihydro-1H-pyrazol-1-yl)thieno[2,3-d]pyrimidin-4-yl)-N^1,N^2,N^2-trimethylethane-1,2-diamine]",5.43 ± 0.17 µM,4.45 ± 0.25 µM,272 to 273 °C,–,–,–,–,IC50 (PI3Kα): 7.16 ± 0.27 µM; IC50 (mTOR): > 10 µM
"c1ccc(-c2ccnn2-c2nc(N3CCOCC3)c3sccc3n2)cc1 [Compound 4a, 4-(2-(5-Phenyl-1H-pyrazol-1-yl)thieno[3,2-d]pyrimidin-4-yl)morpholine]",–,–,243.6 to 244.8 °C,> 100 µM,> 100 µM,> 100 µM,–,–
"CN(C)CCN(C)c1nc(N2N=C(c3ccc(Br)cc3)CC2c2ccc(F)cc2)nc2sccc12 (stereo not drawn) [Compound 13k, N ^1-(2-(3-(4-Bromophenyl)-5-(4-fluorophenyl)-4,5-dihydro-1H-pyrazol-1-yl)thieno[2,3-d]pyrimidin-4-yl)-N^1,N^2,N^2-trimethylethane-1,2-diamine]",22.7 ± 0.35 µM,10.9 ± 0.2 µM,291 to 292 °C,–,–,–,18.39 ± 0.18 µM,–
"CN(C)CCN(C)c1nc(N2N=C(c3ccc(Br)cc3)CC2c2ccccc2)nc2sccc12 (stereo not drawn) [Compound 13l, N ^1-(2-(3-(4-Bromophenyl)-5-phenyl-4,5-dihydro-1H-pyrazol-1-yl)thieno[2,3-d]pyrimidin-4-yl)-N^1,N^2,N^2-trimethylethane-1,2-diamine]",22.95 ± 0.15 µM,15.8 ± 1.23 µM,261 to 262 °C,–,–,–,17.2 ± 0.48 µM,–
"COc1ccc(C2CC(c3ccccc3)=NN2c2nc(N(C)CCN(C)C)c3ccsc3n2)cc1 (stereo not drawn) [Compound 13f, N ^1-(2-(5-(4-Methoxyphenyl)-3-phenyl-4,5-dihydro-1H-pyrazol-1-yl)thieno[2,3-d]pyrimidin-4-yl)-N^1,N^2,N^2-trimethylethane-1,2-diamine]",2.84 ± 0.09 µM,2.08 ± 0.36 µM,–,–,–,–,2.88 ± 0.43 µM,"IC50 (PI3Kα): 0.92 ± 0.14 µM; inhibition of proliferation of A549 cancer cell lines (dose and time dependence) (A549 cancer cell lines [1]; several concentrations and exposure times, Fig. 3): dose-dependent and time-dependent; IC50 (mTOR): > 10 µM; early apoptotic cells (A549 cells; A549, 1.6 μM, 24 h): 9.14%; late apoptotic cells (A549 cells; A549, 1.6 μM, 24 h): 7.68%; induction of apoptosis (Annexin V-FITC/PI) (A549 cells; A549, 0.2-1.6 μM): induce apoptosis in a concentration-dependent manner; induction of apoptosis (cell morphology, AO staining) (A549 cancer cell lines [2]): could induce apoptosis"
"CN(C)CCN(C)c1nc(N2N=C(c3ccc(Cl)c(Cl)c3)CC2c2ccc(Br)cc2)nc2sccc12 (stereo not drawn) [Compound 13b, N ^1-(2-(5-(4-Bromophenyl)-3-(3,4-dichlorophenyl)-4,5-dihydro-1H-pyrazol-1-yl)thieno[2,3-d]pyrimidin-4-yl)-N^1,N^2,N^2-trimethylethane-1,2-diamine]",17.43 ± 0.13 µM,12.9 ± 0.64 µM,291 to 294 °C,–,–,–,12.8 ± 0.23 µM,–
"N ^1-(2-(3-(3,4-Dichlorophenyl)-3-phenyl-4,5-dihydro-1H-pyrazol-1-yl)thieno[2,3-d]pyrimidine-4-yl)-N^1, N^2,N^2-trimethylethane-1,2-diamine [Compound 13e]",–,–,–,–,–,–,–,IC50 (A549 cancer cell lines [1]; [9]): 13.4 ± 0.29 µM; IC50 (MCF-7 cancer cell lines; [9]): 10.5 ± 0.54 µM; IC50 (HepG2 cancer cell lines; [9]): 8.05 ± 0.05 µM
"c1ccc(-c2ccnn2-c2nc(N3CCOCC3)c3ccsc3n2)cc1 [Compound 7a, 4-(2-(5-Phenyl-1H-pyrazol-1-yl)thieno[2,3-d]pyrimidin-4-yl)morpholine]",–,–,223 to 225 °C,37.6 ± 1.88 µM,25.3 ± 0.93 µM,20.2 ± 1.15 µM,–,–
"CS(=O)(=O)N1CCN(Cc2cc3nc(-c4cccc5[nH]ncc45)nc(N4CCOCC4)c3s2)CC1 [GDC-0941, reference compound]",–,0.07 ± 0.03 µM,–,6.99 ± 0.21 µM,0.07 ± 0.03 µM,0.2 ± 0.08 µM,0.2 ± 0.08 µM,–
"Clc1ccc(-c2ccnn2-c2nc(N3CCOCC3)c3sccc3n2)cc1 [Compound 4d, 4-(2-(5-(4-Chlorophenyl)-1H-pyrazol-1-yl)thieno[3,2-d]pyrimidin-4-yl)morpholine]",–,–,250 to 251 °C,> 100 µM,> 100 µM,> 100 µM,–,–
"Clc1ccc(-c2ccnn2-c2nc(N3CCOCC3)c3ccsc3n2)cc1 [Compound 7d, 4-(2-(5-(4-Chlorophenyl)-1H-pyrazol-1-yl)thieno[2,3-d]pyrimidin-4-yl)morpholine]",–,–,280 to 282 °C,> 100 µM,> 100 µM,> 100 µM,–,–
"COc1ccc(C2CC(c3ccc(Cl)c(Cl)c3)=NN2c2nc(N(C)CCN(C)C)c3ccsc3n2)cc1 (stereo not drawn) [Compound 13a, N ^1-(2-(3-(3,4-Dichlorophenyl)-5-(4-methoxyphenyl)-4,5-dihydro-1H-pyrazol-1-yl)thieno[2,3-d]pyrimidin-4-yl)-N^1,N^2,N^2-trimethylethane-1,2-diamine]",–,–,232 to 233 °C,–,–,–,–,–
"CN(C)CCN(C)c1nc(N2N=C(c3ccccc3)CC2c2ccccc2)nc2sccc12 (stereo not drawn) [Compound 13i, N ^1-(2-(3,5-Diphenyl-4,5-dihydro-1H-pyrazol-1-yl)thieno[2,3-d]pyrimidin-4-yl)-N^1,N^2,N^2-trimethylethane-1,2-diamine]",9.43 ± 0.1 µM,6.7 ± 0.14 µM,225 to 227 °C,–,–,–,5.04 ± 0.06 µM,–
"CN(C)CCN(C)c1nc(N2N=C(c3ccc(Cl)c(Cl)c3)CC2c2ccc(F)cc2)nc2sccc12 (stereo not drawn) [Compound 13d, N ^1-(2-(3-(3,4-Dichlorophenyl)-5-(4-fluorophenyl)-4,5-dihydro-1H-pyrazol-1-yl)thieno[2,3-d]pyrimidin-4-yl)-N^1,N^2,N^2-trimethylethane-1,2-diamine]",9.17 ± 0.32 µM,7.27 ± 0.68 µM,244 to 247 °C,–,–,–,6.82 ± 0.17 µM,–
"Fc1ccc(-c2ccnn2-c2nc(N3CCOCC3)c3sccc3n2)cc1 [Compound 4c, 4-(2-(5-(4-Fluorophenyl)-1H-pyrazol-1-yl)thieno[3,2-d]pyrimidin-4-yl)morpholine]",–,–,228 to 231 °C,> 100 µM,> 100 µM,> 100 µM,–,–
"Cc1ccc(-c2ccnn2-c2nc(N3CCOCC3)c3sccc3n2)cc1 [Compound 4b, 4-(2-(5-(p-Tolyl)-1H-pyrazol-1-yl)thieno[3,2-d]pyrimidin-4-yl)morpholine]",–,–,166.8 to 171.5 °C,> 100 µM,> 100 µM,> 100 µM,–,–
"Fc1ccc(-c2ccnn2-c2nc(N3CCOCC3)c3ccsc3n2)cc1 [Compound 7c, 4-(2-(5-(4-Fluorophenyl)-1H-pyrazol-1-yl)thieno[2,3-d]pyrimidin-4-yl)morpholine]",–,–,202 to 205 °C,> 100 µM,> 100 µM,> 100 µM,–,–
"Cc1ccc(C2CC(c3ccc(Cl)c(Cl)c3)=NN2c2nc(N(C)CCN(C)C)c3ccsc3n2)cc1 (stereo not drawn) [Compound 13g, N ^1-(2-(3-(3,4-Dichlorophenyl)-5-(p-tolyl)-4,5-dihydro-1H-pyrazol-1-yl)thieno[2,3-d]pyrimidin-4-yl)-N^1,N^2,N^2-trimethylethane-1,2-diamine]",8.75 ± 0.24 µM,6.96 ± 0.44 µM,269 to 270 °C,–,–,–,4.98 ± 0.04 µM,IC50 (PI3Kα): 3.31 ± 0.12 µM; IC50 (mTOR): > 10 µM
"Cc1ccc(-c2ccnn2-c2nc(N3CCOCC3)c3ccsc3n2)cc1 [Compound 7b, 4-(2-(5-(p-Tolyl)-1H-pyrazol-1-yl)thieno[2,3-d]pyrimidin-4-yl)morpholine]",–,–,286 to 289 °C,35 ± 0.97 µM,30.9 ± 1.05 µM,33.9 ± 1.13 µM,–,–
"COc1ccc(C2CC(c3ccc(F)cc3)=NN2c2nc(N(C)CCN(C)C)c3ccsc3n2)cc1 (stereo not drawn) [Compound 13j, N ^1-(2-(3-(4-Fluorophenyl)-5-(4-methoxyphenyl)-4,5-dihydro-1H-pyrazol-1-yl)thieno[2,3-d]pyrimidin-4-yl)-N^1,N^2,N^2-trimethylethane-1,2-diamine]",–,83.86 ± 0.17 µM,286 to 287 °C,–,–,–,–,–
"CN(C)CCN(C)c1nc(N2N=C(c3ccc(F)cc3)CC2c2ccc(F)cc2)nc2sccc12 (stereo not drawn) [Compound 13c, N ^1-(2-(3,5-Bis(4-fluorophenyl)-4,5-dihydro-1H-pyrazol-1-yl)thieno[2,3-d]pyrimidin-4-yl)-N^1,N^2,N^2-tri-methylethane-1,2-diamine]",9.23 ± 0.02 µM,6.66 ± 0.13 µM,256 to 257 °C,–,–,–,6.51 ± 0.31 µM,IC50 (PI3Kα): 4.62 ± 0.54 µM; IC50 (mTOR): > 10 µM
